The values below come from PubChem BioAssay (NCI).

Structures are written as SMILES.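 Dose response: 5 concentrations. Exposure: 48 h. Format: 96-well plates. Endpoint: linear interpolation; highest concentration if not reached. The concentration for full growth arrest is given as TGI.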 Some results are limits rather than exact numbers.

Holding throughout (assay): growth of human tumour cells (NCI), 48 h
In experiment [1] the test system is MDA-N.
For experiment [2], the system named is MDA-MB-435.
Experiment [3] has as its system OVCAR-4 ovarian.
Experiment [4] relates to SW-620 colon.
In experiment [5] the test system is OVCAR-8 ovarian.
The test system of experiment [6] is SK-MEL-2 melanoma.
Experiment [7] deals with SNB-75 CNS.
The subject of experiment [8] is A549 NSCLC.
For experiment [9], the system named is 786-0 renal.
The test system of experiment [10] is UACC-257 melanoma.
Experiment [11] deals with K-562 leukemia.
The subject of experiment [12] is UACC-62 melanoma.
Experiment [13] relates to IGROV1 ovarian.
In experiment [14] the test system is LOX IMVI melanoma.
The test system of experiment [15] is SF-539 CNS.
Experiment [16] deals with CAKI-1 renal.
Experiment [17] has as its system NCI-H460 lung.

Turning to `CC(C)CC1[C@@H](OCc2ccccc2)COS(=O)N1Cc1ccccc1` (some centres not stated), the TGI in experiment [1], in experiment [2], in experiment [3], in experiment [4], in experiment [5] and in experiment [6] was over 100 µM each time. Also, the TGI in experiment [7] was 70.7 µM; in experiment [8] it was over 100 µM; in experiment [9], over 100 µM; in experiment [10], over 100 µM; in experiment [11], over 100 µM; in experiment [12], over 100 µM. The TGI in [13] and in [14] was over 100 µM throughout.
As for `C[C@]12CCC(=O)C=C1CC[C@@H]1C2CC[C@]2(C)c3nn(-c4ccc(F)cc4)nc3CC12` (some centres not stated), the TGI in experiment [1], in [2], in experiment [3], in experiment [15], in experiment [4] and in experiment [5] was over 100 µM in each case. The TGI in experiment [7], in experiment [8], in [9], in experiment [10], in experiment [11] and in experiment [12] was over 100 µM each time. The TGI in [16], in experiment [13] and in experiment [17] was over 100 µM in each case.
`Cc1cc(C)cc(C(=N)c2ccccc2Cc2cccc3ccccc23)c1`: the TGI was 54.2 µM in experiment [1]; 32.9 µM in experiment [2]; 33.7 µM in experiment [3]; 30 µM in experiment [15]; 31.8 µM in experiment [4]; 34.1 µM in [5]. Besides, the TGI in experiment [6] is over 100 µM; in experiment [8] it was 42.4 µM; in experiment [9], 31.8 µM; in [10], 64.1 µM; in experiment [11], 48.5 µM; in experiment [12] it was 29 µM. The TGI worked out at 72.9 µM in experiment [16], 34.9 µM in experiment [13], 29.5 µM in [17] and 33 µM in experiment [14].
Regarding `CC1=C(C(N)=O)C(c2ccncc2)C(C#N)=C2SCC(=O)N12` (configuration not stated), the TGI in [1], in [2], in [3], in [15], in experiment [4] and in experiment [5] was over 100 µM in each case. In addition, the TGI in experiment [6], in experiment [7], in experiment [8], in experiment [9], in experiment [10] and in experiment [11] was over 100 µM in each case. In addition, the TGI in [12], in experiment [16], in experiment [13] and in [17] was over 100 µM each time.
Turning to `CC1=C(Br)C(Br)=C(C)S1=O`, the TGI in experiment [1] was 28.7 µM; in experiment [2], 30.9 µM; in experiment [3], over 100 µM; in experiment [15], 27.7 µM; in experiment [4], over 100 µM; in experiment [5] it was over 100 µM. Further, the TGI is 32.9 µM in experiment [6]; 79.8 µM in [8]; 55.9 µM in experiment [9]; 32.1 µM in experiment [10]; over 100 µM in experiment [11]; 85.8 µM in experiment [12]. For the same compound, the TGI in experiment [16] is 49.9 µM; in experiment [13], over 100 µM; in experiment [17], 34.7 µM; in experiment [14], 27.8 µM.
As to `O=C(c1ccccc1)c1c(-c2ccccc2)[nH]n(-c2ccc([N+](=O)[O-])cc2)c(=O)c1=O`, the TGI in experiment [1] is over 100 µM; in experiment [2], over 100 µM; in [3], over 100 µM; in experiment [15], 88 µM; in experiment [4], over 100 µM; in experiment [5] it was over 100 µM. The TGI in experiment [6] is 61.5 µM; in experiment [8] it was over 100 µM; in experiment [9] it was over 100 µM; in experiment [10] it was over 100 µM; in experiment [11] it was over 100 µM; in experiment [12] it was over 100 µM. Besides, the TGI in experiment [16], in experiment [13] and in [17] was over 100 µM throughout.
Take `CC12CCC(C(=O)OC1=O)C2(C)C` (configuration not stated): the TGI in experiment [1], in experiment [2], in experiment [3], in experiment [15], in experiment [4] and in [5] was over 100 µM throughout. For the same compound, the TGI in experiment [6], in [7], in experiment [9], in [10], in [11] and in [12] was over 100 µM throughout. Besides, the TGI in experiment [13], in experiment [17] and in [14] was over 100 µM each time.
Take `COC1=C(Br)[C@H](O)[C@@]2(C=C1Br)CC(C(=O)NCCCCCN=C(N)N)=NO2`: the TGI in experiment [1], in experiment [2], in experiment [3], in [15], in [4] and in [5] was over 10 µM throughout. For the same compound, the TGI in experiment [6], in [7], in experiment [8], in [9], in experiment [10] and in [11] was over 10 µM in each case. Moreover, the TGI in experiment [12], in experiment [13], in [17] and in experiment [14] was over 10 µM in each case.
Turning to `C=CCN1C[C@H](C)N([C@H](c2ccc(C(=O)N(CC)CCO)cc2)c2cccc(OC)c2)C[C@H]1C`, the TGI in experiment [1], in experiment [2], in experiment [3], in experiment [15], in experiment [4] and in experiment [5] was over 100 µM each time. For the same compound, the TGI in experiment [6], in [8], in experiment [9], in experiment [10], in experiment [12] and in [16] was over 100 µM throughout. In [13], the TGI was over 100 µM.
Take `CC(=O)OC1CC2c3cccc4c3C(CC2N(C)C1=O)CN4C(=O)c1ccccc1` (configuration not stated): the TGI was 77.1 µM in [1]; 52.6 µM in [2]; 92.3 µM in [3]; 93.9 µM in experiment [15]; over 100 µM in experiment [4]; 48.8 µM in experiment [5]. The TGI was 64.9 µM in experiment [6]; 37.2 µM in experiment [8]; 52.2 µM in experiment [9]; 49.9 µM in [10]; over 100 µM in experiment [11]; 50.3 µM in experiment [12]. Moreover, the TGI in experiment [16] was 54.8 µM; in experiment [13] it was 43.8 µM; in experiment [14], 25.3 µM.
On to `CCN(CC)/C(Cl)=C(Cl)\C(=C1\Nc2ccc(OC)cc21)[N+](=O)[O-]`, for which the TGI in experiment [1] is over 100 µM; in [2] it was over 100 µM; in [3], over 100 µM; in experiment [4] it was over 100 µM; in experiment [5], over 100 µM; in experiment [7], 81.8 µM. Besides, the TGI in experiment [8], in experiment [9], in experiment [10], in [11], in [12] and in experiment [16] was over 100 µM each time. In addition, the TGI in experiment [13], in [17] and in experiment [14] was over 100 µM throughout.
Regarding `Cn1ccc(C(=O)NCCOCCNC(=O)c2ccn(C)c(=O)c2O)c(O)c1=O`, the TGI in experiment [1], in [2], in experiment [3], in experiment [4], in experiment [5] and in experiment [6] was over 100 µM throughout. Moreover, the TGI in experiment [8], in experiment [9], in experiment [10], in [12], in [16] and in experiment [17] was over 100 µM throughout. The compound also had a TGI in experiment [14] of over 100 µM.
As for `CCN1c2nc3ccccc3nc2N(CC)c2nc3ccccc3nc21`, the TGI in [1] was over 100 µM; in experiment [2] it was over 100 µM; in experiment [15], 94 µM; in experiment [4], over 100 µM; in [5], over 100 µM; in experiment [6], over 100 µM. For the same compound, the TGI in experiment [8], in experiment [9], in experiment [11], in experiment [12], in experiment [16] and in experiment [13] was over 100 µM throughout. The TGI in experiment [17] and in [14] was over 100 µM in each case.
Take `CC(=O)Oc1ccccc1-c1cc2ccccc2oc1=O`: the TGI in [1], in experiment [2], in experiment [15], in [4], in experiment [5] and in experiment [6] was over 100 µM in each case. In addition, the TGI in experiment [7], in [8], in experiment [9], in [10], in [11] and in [17] was over 100 µM throughout. For the same compound, the TGI in [14] was over 100 µM.
Consider `Cc1cccc2c1Oc1cc(Cl)ccc1C2NC(=O)CCN1CCOCC1` (configuration not stated), for which the TGI in experiment [1], in [2], in experiment [3], in experiment [15], in [4] and in experiment [5] was over 100 µM each time. In addition, the TGI in [7], in [8], in experiment [9], in experiment [10], in experiment [11] and in experiment [12] was over 100 µM in each case. Moreover, the TGI in experiment [13], in [17] and in [14] was over 100 µM each time.
Turning to `COc1ccc2c3c1O[C@H]1C(O)CCC4(O)[C@@H](C2)NCC[C@]314` (some centres not stated), the TGI in experiment [1], in [2], in experiment [3], in experiment [15], in experiment [4] and in experiment [5] was over 100 µM in each case. Further, the TGI in [6], in experiment [8], in experiment [9], in [10], in [11] and in [12] was over 100 µM throughout. For the same compound, the TGI in [16], in [13] and in [14] was over 100 µM each time.
Turning to `CCN(CC)CCn1nc(N)c2nc3cc(Cl)ccc3nc21`, the TGI in experiment [1], in experiment [2], in experiment [3], in experiment [4], in experiment [5] and in [6] was over 100 µM in each case. The TGI in [8], in experiment [9], in experiment [10], in [11], in [12] and in experiment [16] was over 100 µM throughout. For the same compound, the TGI was 52.8 µM in [13], over 100 µM in experiment [17] and over 100 µM in experiment [14].
As for `CC1(C)c2ccccc2C(=O)C12CCC(=O)CC2`, the TGI in experiment [1], in [3], in [15], in experiment [4], in [5] and in [6] was over 100 µM in each case. The TGI in [7], in experiment [8], in [9], in [10], in experiment [11] and in experiment [12] was over 100 µM in each case. The TGI in [16], in [13], in experiment [17] and in [14] was over 100 µM throughout.
